System: intracoronary thrombus
Experiment: Local delivery of urokinase from hydrogel-coated balloon during balloon angioplasty in patients
Format: in vivo
Settings: all 11 patients; balloon immersed in 50,000 units/ml; pressure in excess of 2 atmospheres; 1-2 inflations, 1-5 minutes
Protocol: To evaluate the efficacy of local delivery of urokinase during balloon angioplasty in treating intracoronary thrombus according to the invention, 11 patients were treated with hydrogel-coated balloons which had been immersed in a concentrated solution of urokinase (50,000 units/ml). Eight patients presented with acute myocardial infarctions, while the remaining three had unstable angina. Five patients had received intravenous thrombolytic therapy, including systemic thrombolysis. Conventional balloon angioplasty was initially performed in 9 of the 11 patients and was complicated either by acute thrombotic closure (n=7) or slow antegrade flow with the appearance of intracoronary thrombus (n=2). The remaining 2 patients had coronary stenoses with angiographic evidence of thrombus, but were not initially treated with conventional angioplasty.

Substance: urokinase
- outcome of balloon dilatation with urokinase-impregnated, hydrogel-coated balloon: reversal of abrupt closure and dissolution of intracoronary thrombus

Reference: patent publication US6409716B1, “Drug delivery” (Scimed Life Systems, Inc., priority 1989, dated 2002)
